From patent US20250313544A1, “INHIBITORS OF GLUTATHIONE S-TRANSFERASE ZETA 1 (GSTZ1) AND METHODS OF USE” (H. LEE MOFFITT CANCER CENTER AND RESEARCH INSTITUTE, INC., priority 2022, published 2025)

Tests used:
[1] = tested on: H1792 LUAD cells; assay: Chemical proteomics target profiling in live H1792 cells (label-free LC-MS/MS, comparison with control probe 22 and panel-wide cross-comparison); format: binding, human
Description: Cells were grown in 10 cm dishes to ˜90% confluence at the time of treatment. Cells were carefully washed twice with Dulbecco's phosphate buffered saline (DPBS) and replenished with fresh serum-free RPMI 1640 media containing indicated probes ([…]), competitors, or DMSO. Without competitors, cells were incubated with probes for 30 min at 37° C. and then exposed to 365 nm UV light for 15 min on ice. With competitors, cells were pre-treated with competitors for 30 min and photoactivated for 15 min. Probes were then added to cells for an additional 30 min incubation. For no UV experiments, cells were incubated for 15 min under ambient light. Cells were harvested in cold DPBS and pellets were washed with cold DPBS (2 X). Pellets were either directly processed or kept frozen at −80° C. until use. Cells pellets were lysed for 30 min in cold DPBS (100-300 uL) per culture dish supplemented with 1% NP-40, followed by sonication (5 pulses, 4 s on, 20 s off, output setting=4). Lysates were centrifuged at 20,817×g for 20 min, and supernatant (soluble proteome) was used for further processing. Protein concentrations were determined using Bradford assays.
Protein pellets were transferred to 5 mL microcentrifuge tubes and then resuspended in a freshly-prepared solution of proteomics-grade urea (320 μL, 6 M Urea in DPBS) containing 80 μL of 10% SDS and dissolved by sonication. To each solution, 4 mL DPBS was added (final conc: 0.2%, total volume) and incubated with pre-equilibrated NeutrAvidin agarose resin (100 μL 1:1 slurry, Pierce, Cat. 29201) for 2 hrs at ambient temperature on a rotator. The NeutrAvidin beads were collected by centrifugation (1,400×g, 2 min) and sequentially washed with 0.2% SDS in DPBS (2×2 mL), detergent-free DPBS (2×2 mL), and 50 mM ammonium bicarbonate (AMBIC, 2×2 mL). Beads were resuspended with 200 μL 50 mM AMBIC and incubated with TCEP 50 μL (100 mM in 50 mM AMBIC) for 30 min at 37° C. Iodoacetamide (50 μL of 200 mM in 50 mM AMBIC) was added and incubated for 30 min at ambient temperature. The beads were again washed with 2×1 mL 50 mM AMBIC and resuspended in 100 μL of fresh 50 mM AMBIC and treated with 2 μg of sequencing grade modified trypsin (Promega, #V5111) at 37° C. overnight. These samples were acidified with formic acid (final conc: 5%) and centrifuged (1,000×g, 2 min). The supernatant was collected and desalted through ZIPTIPs, and the desalted peptide mixture were dried in vacuum and reconstituted with HPLC buffer (2% acetonitrile, 0.1% formic acid) for LC-MS/MS analysis. Tryptic peptides of avidin were excluded from MS2 analysis to maximize detection of the protein targets (Table S7). Samples were analyzed using LC-MS/MS after being spiked with 50 fmol/uL PRTC standards (88320, Pierce Retention Time Calibration Mixture, Thermo Fisher, MA). A nanoflow ultra high performance liquid chromatograph and nanoelectrospray orbitrap mass spectrometer (RSLCnano and Q Exactive plus, Thermo) were used for LC-MS/MS. The sample was loaded onto a pre-column (C18 PepMap100, 2 cm length×100 μm ID packed with C18 reversed-phase resin, 5 μm particle size, 100 Å pore size) and washed for 8 minutes with aqueous 2% acetonitrile and 0.1% formic acid. Trapped peptides were eluted onto the analytical column, (C18 PepMap100, 25 cm length×75 μm ID, 2 μm particle size, 100 Å pore size, Thermo). A 120-minute gradient was programmed as: 95% solvent A (aqueous 2% acetonitrile+0.1% formic acid) for 8 minutes, solvent B (aqueous 90% acetonitrile+0.1% formic acid) from 5% to 38.5% in 90 minutes, then solvent B from 50% to 90% B in 7 minutes and held at 90% for 5 minutes, followed by solvent B from 90% to 5% in 1 minute and re-equilibration for 10 minutes using a flow rate of 300 nl/min. Spray voltage was 1900 V. Capillary temperature was 275° C. S lens RF level was set at 40. Top 16 tandem mass spectra were collected in a data-dependent manner. The resolution for MS and MS/MS were set at 70,000 and 17,500 respectively. […]

[2] = tested on: H1792 cells harboring KRAS G12C; assay: Cell viability assay (CellTiter-Glo) in H1792 cells; format: cell-based, human; conditions: probe combined with sotorasib in H1792 cells, dose of 50 μM (FIG. 9D)
Description: Cells were seeded in Corning 384-well black walled/clear bottom microplates with a density of 1,000 cells/well and treated with indicated drugs and concentrations following cell attachment for 24 h. After 72 h or 96 h, as indicated, cell viability was evaluated with CellTiter-Glo (Promega, Madison, WI) according to manufacturer's recommendations. An M5 Spectramax plate reader (Molecular devices) was used to read the plates with 500 ms integration. Data was processed and analyzed using Excel and GraphPad Prism 9.0.

SMILES: C#CCCC1(CCC(=O)N2CCC(COc3nc4ccccc4nc3C)CC2)N=N1 [Probe 17, 3-(3-(but-3-yn-1-yl)-3H-diazirin-3-yl)-1-(4-(((3-methylquinoxalin-2-yl)oxy)methyl)piperidin-1-yl)propan-1-one]
- prominent target protein predominantly enriched by the probe ([1]; compared to control probe and probe panel): GSTZ1
- selectivity of probe for GSTZ1 ([1]; many other enriched putative targets vs. negative control probe alone): should not be considered a selective probe for GSTZ1
- sensitization of cells towards sotorasib [2]: significantly enhanced the sensitivity
